# Test results as given in the supplement of paper PMC10307832.
# Columns and labels:
# Assay in all cases: relative viability (nuclei count vs DMSO), 5 days (fraction); higher = more cells survive
# Bexarotene + Alpelisib = compound: C=C(c1ccc(C(=O)O)cc1)c1cc2c(cc1C)C(C)(C)CCC2(C)C [Bexarotene] + Cc1nc(NC(=O)N2CCC[C@H]2C(N)=O)sc1-c1ccnc(C(C)(C)C(F)(F)F)c1 [Alpelisib] (partner 2 µM)
# Procedure, shortened: (§1)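 Dosing by pin tool came one day after lung cancer cell lines were seeded in 1536-well plates, using either one drug or a fixed anchor-drug dose plus five library-drug doses (not always all listed) in √10 steps. After 5 days, nuclei were counted on 4× images. Relative viability is treated-well nuclei count divided by vehicle-well nuclei count, and values are medians of duplicate plates.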
# Bexarotene + Tozasertib = compound: C=C(c1ccc(C(=O)O)cc1)c1cc2c(cc1C)C(C)(C)CCC2(C)C [Bexarotene] + Cc1cc(Nc2cc(N3CCN(C)CC3)nc(Sc3ccc(NC(=O)C4CC4)cc3)n2)n[nH]1 [Tozasertib] (partner 0.1 µM)
# Procedure, shortened: as §1
# Bexarotene + Luminespib = compound: C=C(c1ccc(C(=O)O)cc1)c1cc2c(cc1C)C(C)(C)CCC2(C)C [Bexarotene] + CCNC(=O)c1noc(-c2cc(C(C)C)c(O)cc2O)c1-c1ccc(CN2CCOCC2)cc1 [Luminespib] (partner 0.01 µM)
# Procedure, shortened: as §1
# Bexarotene + Dasatinib = compound: C=C(c1ccc(C(=O)O)cc1)c1cc2c(cc1C)C(C)(C)CCC2(C)C [Bexarotene] + Cc1nc(Nc2ncc(C(=O)Nc3c(C)cccc3Cl)s2)cc(N2CCN(CCO)CC2)n1 [Dasatinib] (partner 0.075 µM)
# Procedure, shortened: as §1
Cell Line,relative viability (Bexarotene + Alpelisib; first compound 0.08 µM),relative viability (Bexarotene + Alpelisib; first compound 0.253 µM),relative viability (Bexarotene + Alpelisib; first compound 0.8 µM),relative viability (Bexarotene + Alpelisib; first compound 2.53 µM),relative viability (Bexarotene + Alpelisib; first compound 8 µM),relative viability (Bexarotene + Tozasertib; first compound 0.08 µM),relative viability (Bexarotene + Tozasertib; first compound 0.253 µM),relative viability (Bexarotene + Tozasertib; first compound 0.8 µM),relative viability (Bexarotene + Tozasertib; first compound 2.53 µM),relative viability (Bexarotene + Tozasertib; first compound 8 µM),relative viability (Bexarotene + Luminespib; first compound 0.08 µM),relative viability (Bexarotene + Luminespib; first compound 0.253 µM),relative viability (Bexarotene + Luminespib; first compound 0.8 µM),relative viability (Bexarotene + Luminespib; first compound 2.53 µM),relative viability (Bexarotene + Luminespib; first compound 8 µM),relative viability (Bexarotene + Dasatinib; first compound 0.08 µM),relative viability (Bexarotene + Dasatinib; first compound 0.253 µM),relative viability (Bexarotene + Dasatinib; first compound 0.8 µM),relative viability (Bexarotene + Dasatinib; first compound 2.53 µM),relative viability (Bexarotene + Dasatinib; first compound 8 µM)
HCC-827,1.05,0.844,0.969,1.04,0.917,0.444,0.395,0.433,0.402,0.366,0.525,0.78,0.655,0.808,0.473,0.284,0.465,0.419,0.35,0.344
HOP-62,1.35,1.4,1.03,1.12,0.917,0.352,0.366,0.408,0.391,0.363,1.07,1.1,1.01,1.09,0.978,0.677,0.641,0.428,0.606,0.57
IA-LM,0.771,0.702,0.67,0.581,0.669,–,–,–,–,–,–,–,–,–,–,–,–,–,–,–
LC-2-ad,0.872,1.15,0.762,0.96,0.861,0.438,0.503,0.408,0.41,0.434,1.01,0.978,1.04,1,1.1,0.696,0.602,0.575,0.497,0.625
LCLC-97TM1,0.333,0.285,0.274,0.264,0.263,0.251,0.192,0.206,0.189,0.221,0.827,0.849,0.778,0.769,0.822,1.05,0.795,0.815,0.773,0.822
LCLC-103H,1.03,0.968,1.04,1.09,0.993,0.531,0.452,0.428,0.48,0.43,1.08,0.935,0.885,1.04,0.846,0.489,0.567,0.419,0.525,0.49
LK-2,1.15,1.12,1.12,1.25,1.15,0.175,0.162,0.185,–,0.165,0.206,0.222,0.281,–,0.18,0.314,0.474,0.39,–,0.465
LOU-NH91,0.633,0.653,0.601,0.632,0.616,0.643,0.624,0.665,0.637,0.598,0.364,0.318,0.346,0.287,0.268,0.584,0.613,0.467,0.521,0.502
LU99A,0.592,0.57,0.535,0.475,0.61,0.291,0.252,0.296,0.234,0.284,0.268,0.251,0.238,0.291,0.244,0.748,0.703,0.711,0.613,0.699
LXF-289,1.04,1.1,1.06,1.04,0.983,0.166,0.196,0.213,0.137,0.141,0.8,0.824,0.798,0.874,0.8,0.213,0.195,0.179,0.127,0.155
NCI-H23,0.812,0.782,0.551,0.829,0.656,0.383,0.619,0.365,0.287,0.333,0.229,0.201,0.238,0.234,0.204,0.944,0.594,0.635,0.884,0.691
NCI-H322M,0.846,0.881,0.809,0.771,0.874,0.508,0.505,0.488,0.475,0.445,1.05,0.902,0.862,0.982,0.812,0.282,0.266,0.264,0.261,0.3
NCI-H522,–,–,–,–,–,0.551,0.523,0.562,0.506,0.634,1.24,1.09,1.17,1.23,0.899,0.939,0.874,0.957,0.842,0.93
NCI-H1563,0.947,0.804,0.955,0.973,0.839,–,–,–,–,–,0.518,0.493,0.48,0.524,0.503,0.489,0.423,0.449,0.469,0.487
NCI-H1648,–,–,–,–,–,0.453,0.559,0.307,0.492,0.384,–,–,–,–,–,–,–,–,–,–
NCI-H1650,–,–,–,–,–,0.483,0.541,0.55,0.397,0.419,0.195,0.183,0.219,0.225,0.231,0.383,0.38,0.408,0.333,0.296
NCI-H1703,0.423,0.364,0.402,0.242,0.324,–,–,–,–,–,–,–,–,–,–,–,–,–,–,–
NCI-H1792,0.534,0.697,0.532,0.585,0.413,–,–,–,–,–,0.519,0.406,0.49,0.361,0.286,0.82,0.769,0.764,0.786,0.689
NCI-H2342,–,–,–,–,–,0.552,0.57,0.429,0.473,0.512,0.709,0.675,0.747,0.873,0.661,0.331,0.301,0.256,0.33,0.419
SW 900,–,–,–,–,–,0.559,0.617,0.589,0.498,0.431,0.167,0.17,0.148,0.189,0.163,0.703,0.55,0.505,0.544,0.772
